Laboratory results as given in patent US20250195521A1 (Revolution Medicines, Inc., priority 2020, published 2025).
pEC50, pIC50: −log10 of the molar value.

tested on: K-Ras G12C (NCI-H358 cells); test: Potency assay: pERK in NCI-H358 cells; format: cell-based, human; details: Homo sapiens; NCI-H358 cells, 4 hours; read-out: pERK EC50 (H358 KRAS G12C)
In short: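 Cells plated the day before were exposed for 4 h at 37° C, 5% CO2 to a 10-point, 3-fold DMSO dilution series (10 mM top stock), in duplicate. Phospho-ERK was read by AlphaLISA SureFire Ultra or by In-Cell Western with DRAQ5 DNA stain, and IC50 came from a 4-parameter sigmoidal fit.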

Structure (SMILES) | pEC50
C=CC(=O)N1CC[C@H](C(=O)N(C)[C@H](C(=O)N[C@H]2Cc3cccc(c3)-c3ccc4c(c3)c(c(-c3cccnc3[C@H](C)OC)n4CC)CC(C)(C)COC(=O)[C@@H]3CCCN(N3)C2=O)[C@@H](C)C(F)(F)F)C1 (atropisomer, axis not shown) [Compound A640] | > 5.30

tested on: NCI-H358 (K-Ras G12C); test: CellTiter-Glo cell viability assay, NCI-H358; format: cell-based, human; details: 5-day treatment; read-out: H358 Cell Viability assay data (K-Ras G12C, IC50)
Protocol: Determination of Cell Viability in RAS Mutant Cancer Cell Lines Protocol: CellTiter-Glo® Cell Viability Assay
Note—The following protocol describes a procedure for monitoring cell viability of K-Ras mutant cancer cell lines in response to a compound of the invention. Other RAS isoforms may be employed, though the number of cells to be seeded will vary based on cell line used.
Test compounds (132.5 nL) were directly dispensed into the assay plates containing cells. […] On day 5, assay plates and their contents were equilibrated to room temperature for approximately 30 minutes. […] Luminescence was measured using the PerkinElmer Enspire. Data were normalized by the following: (Sample signal/Avg. DMSO)*100. The data were fit using a four-parameter logistic fit.

Structure (SMILES) | pIC50
C=CC(=O)Nc1ccc(C(=O)N(C)[C@H](C(=O)N[C@H]2Cc3cc(O)cc(c3)-c3ccc4c(c3)c(c(-c3cccnc3[C@H](C)OC)n4CC)CC(C)(C)COC(=O)[C@@H]3CCCN(N3)C2=O)C(C)C)cn1 [Compound A336] | > 8.00
C=CC(=O)N1CC[C@H](C(=O)N(C)[C@H](C(=O)N[C@H]2Cc3nc(cs3)-c3ccc4c(c3)c(c(-c3cc(C5=CCN(C)CC5)cnc3[C@H](C)OC)n4CC)CC(C)(C)COC(=O)[C@@H]3CCCN(N3)C2=O)C(C)C)C1 [Compound A520] | > 8.00
C=CC(=O)N1CC[C@H](C(=O)N(C)[C@H](C(=O)N[C@H]2Cc3cccc(c3)-c3ccc4c(c3)c(c(-c3cc(CN(C)C)cnc3[C@H](C)OC)n4CC)CC(C)(C)COC(=O)[C@@H]3CCCN(N3)C2=O)C(C)C)C1 [Compound A523] | 6.00 to 7.00

same assay, conditions: Homo sapiens, NCI-H358, 120 h, 5-day treatment; read-out: H358 Cell Viability assay data (K-Ras G12C, IC50)

Structure (SMILES) | pIC50
C=CC(=O)N1CC[C@H](C(=O)N(C)[C@H](C(=O)N[C@H]2Cc3cccc(c3)-c3ccc4c(c3)c(c(-c3cccnc3[C@H](C)OC)n4CC)CC(C)(C)COC(=O)[C@@H]3CCCN(N3)C2=O)[C@@H](C)C(F)(F)F)C1 (atropisomer, axis not shown) [Compound A640] | 7.00 to 8.00
CCn1c(-c2cccnc2[C@H](C)OC)c2c3cc(ccc31)-c1cc(O)cc(c1)C[C@H](NC(=O)[C@H](C(C)C)N(C)C(=O)[C@H]1CCN(C(=O)C#C[C@@H]3CCCN3C)C1)C(=O)N1CCC[C@H](N1)C(=O)OCC(C)(C)C2 [Compound A247] | > 8.00
C=CC(=O)N1CC[C@H](C(=O)N(C)[C@H](C(=O)N[C@H]2CC3=NN=C(S3)c3ccc4c(c3)c(c(-c3cccnc3[C@H](C)OC)n4CC)CC(C)(C)COC(=O)[C@@H]3CCCN(N3)C2=O)C(C)C)C1 [Compound A248] | < 5.00
C=CC(=O)Nc1ccc(C(=O)N(C)[C@H](C(=O)N[C@H]2Cc3cc(O)cc(c3)-c3ccc4c(c3)c(c(-c3cccnc3[C@H](C)OC)n4CC)CC(C)(C)COC(=O)[C@@H]3CCCN(N3)C2=O)C(C)C)cn1 [Compound A250] | > 8.00
CCn1c(-c2cccnc2[C@H](C)OC)c2c3cc(ccc31)-c1cc(O)cc(c1)C[C@H](NC(=O)C1CCCC1C(F)F)C(=O)N1CCC[C@H](N1)C(=O)OCC(C)(C)C2 (stereo partly drawn) [Compound A254] | 6.00 to 7.00
C=CC(=O)N1CC[C@H](C(=O)N(C)[C@H](C(=O)N[C@@H]2C(=O)N3CCC[C@H](N3)C(=O)OCC(C)(C)Cc3c(-c4cncnc4)n(CC)c4ccc(cc34)-c3cccc(c3)[C@H]2O)C(C)C)C1 [Compound A272] | < 5.00
C=CC(=O)N1CC[C@H](C(=O)N(C)[C@H](C(=O)N[C@@H]2C(=O)N3CCC[C@H](N3)C(=O)OCC(C)(C)Cc3c(-c4cncnc4)n(CC)c4ccc(cc34)-c3cccc(c3)[C@H]2OC)C(C)C)C1 [Compound A273] | < 5.00
C=CC(=O)N1CC[C@H](C(=O)N(C)[C@H](C(=O)N[C@H]2Cc3ncc(n3C)-c3ccc4c(c3)c(c(-c3cccnc3[C@H](C)OC)n4CC)CC(C)(C)COC(=O)[C@@H]3CCCN(N3)C2=O)C(C)C)C1 [Compound A276] | < 5.00
C=CC(=O)N1CC[C@H](C(=O)N(C)[C@H](C(=O)N[C@H]2Cc3cc(O)cc(c3)-c3ccc4c(c3)c(c(-c3cccnc3[C@@H]3CCCO3)n4CC)CC(C)(C)COC(=O)[C@@H]3CCCN(N3)C2=O)C(C)C)C1 [Compound A281] | > 8.00
C=CC(=O)N1CC[C@H](C(=O)N(C)[C@H](C(=O)N[C@H]2Cc3nc(ns3)-c3ccc4c(c3)c(c(-c3cncnc3)n4CC)CC(C)(C)COC(=O)[C@@H]3CCCN(N3)C2=O)C(C)C)C1 [Compound A285] | < 5.00
C=CC(=O)N1CC[C@H](C(=O)N(C)[C@H](C(=O)N[C@H]2Cc3nc(cs3)-c3ccc4c(c3)c(c(-c3cccnc3[C@H](C)OC)n4CC)CC(C)(C)CN(C)C[C@@H]3CCCN(N3)C2=O)C(C)C)C1 [Compound A287] | < 5.00
C=CC(=O)N1CC[C@H](C(=O)N(C)[C@H](C(=O)N[C@H]2Cc3nc(cs3)-c3ccc4c(c3)c(c(-c3cccnc3[C@H](C)OC)n4CC)CC(C)(C)CCC[C@@H]3CCCN(N3)C2=O)C(C)C)C1 [Compound A288] | < 5.00
CO[C@@H](C)c1ncccc1-c1nc2ccc3cn2c1CC(C)(C)COC(=O)[C@@H]1CCCN(N1)C(=O)[C@@H](NC(=O)[C@H](C(C)C)N(C)C(=O)[C@H]1CCN(C(=O)C#CC(C)(C)N(C)C)C1)Cc1cccc-3c1 [Compound A311] | < 5.00
CCn1c(-c2cccnc2[C@H](C)OC)c2c3cc(ccc31)-c1csc(n1)C[C@H](NC(=O)C1(F)COC1)C(=O)N1CCC[C@H](N1)C(=O)OCC(C)(C)C2 [Compound A320] | 7.00 to 8.00
C=CC(=O)N1CC[C@H](C(=O)N(C)[C@H](C(=O)N[C@H]2Cc3nc(cs3)-c3ccc4c(n3)c(c(-c3cccnc3[C@H](C)OC)n4CC)CC(C)(C)COC(=O)[C@@H]3CCCN(N3)C2=O)C(C)C)C1 [Compound A347, (2S)—N-[(7S,13S)-21-ethyl-20-{2-[(1S)-1-methoxyethyl]pyridin-3-yl}-17,17-dimethyl-8,14-dioxo-15-oxa-4-thia-9,21,25,27,28-pentaazapentacyclo[17.5.2.1^{2,5}0.1^{9,13}0.0^{22,26}]octacosa-1 (25),2,5 (28), 19,22 (26),23-hexaen-7-yl]-3-methyl-2-{N-methyl-1-[(3S)-1-(prop-2-enoyl)pyrrolidin-3-yl]formamido}butanamide] | 6.00 to 7.00
CCn1c(-c2cccnc2[C@H](C)OC)c2c3cc(ccc31)-c1csc(n1)C[C@H](NC(=O)[C@H](C(C)C)N(C)C(=O)N1CC(N(C)C(=O)C#CC(C)(C)N3CCC3)C1)C(=O)N1CCC[C@H](N1)C(=O)OCC(C)(C)C2 [Compound A379] | > 8.00
C=CC(=O)N1CC[C@H](C(=O)N(C)[C@H](C(=O)N[C@H]2C[C@H]3CN(CCCO3)c3ccc4c(c3)c(c(-c3cccnc3[C@H](C)OC)n4CC)CC(C)(C)COC(=O)[C@@H]3CCCN(N3)C2=O)C(C)C)C1 [Compound A405] | < 5.00
C=CC(=O)N1CC[C@H](C(=O)N(C)[C@H](C(=O)NC2C[C@H]3CN(CCCO3)c3ccc4c(c3)c(c(-c3cccnc3[C@H](C)OC)n4CC)CC(C)(C)COC(=O)[C@@H]3CCCN(N3)C2=O)C(C)C)C1 (stereo partly drawn) [Compound A429] | < 5.00
C=CC(=O)N1CC(OCC(C(=O)N[C@H]2Cc3cc(cc(C(F)F)c3)-c3ccc4c(c3)c(c(-c3cccnc3[C@H](C)OC)n4CC)CC(C)(C)COC(=O)[C@@H]3CCCN(N3)C2=O)C(C)C)C1 (stereo partly drawn) [Compound A450] | < 5.00
CCn1c(-c2cccnc2[C@H](C)OC)c2c3cc(ccc31)-c1csc(n1)C[C@H](NC(=O)[C@H](C(C)C)N(C)C(=O)N1CC([C@H](C)CO)C1)C(=O)N1CCC[C@H](N1)C(=O)OCC(C)(C)C2 [Compound A478] | 7.00 to 8.00
CCn1c(-c2cccnc2[C@H](C)OC)c2c3cc(ccc31)-c1csc(n1)C[C@H](NC(=O)[C@H](C(C)C)N(C)C(=O)N1CC3(CC(N4CCOCC4)C3)C1)C(=O)N1CCC[C@H](N1)C(=O)OCC(C)(C)C2 [Compound A486] | 6.00 to 7.00
CCn1c(-c2cccnc2[C@H](C)OC)c2c3cc(ccc31)-c1csc(n1)[C@@H](O)[C@H](NC(=O)[C@H](C(C)C)N(C)C(=O)N1CC(N(C)C)C1)C(=O)N1CCC[C@H](N1)C(=O)OCC(C)(C)C2 [Compound A489] | 7.00 to 8.00
C=CC(=O)N1CC[C@H](C(=O)N(C)[C@H](C(=O)N[C@H]2CCC(=O)N(C)Cc3ccc4c(c3)c(c(-c3cccnc3[C@H](C)OC)n4CC)CC(C)(C)COC(=O)[C@@H]3CCCN(N3)C2=O)C(C)C)C1 [Compound A500] | < 5.00
C=CC(=O)N1CC[C@H](C(=O)N(C)[C@H](C(=O)N[C@H]2Cc3cccc(c3)-c3ccc4c(c3)c(c(-c3cc(C5=CCN(C)CC5)cnc3[C@H](C)OC)n4CC)CC(C)(C)COC(=O)[C@@H]3CCCN(N3)C2=O)C(C)C)C1 [Compound A514] | 6.00 to 7.00
C=CC(=O)N1CC[C@H](C(=O)N(C)[C@H](C(=O)N[C@H]2Cc3cccc(c3)-c3ccc4c(c3)c(c(-c3cc(C5CCN(C)CC5)cnc3[C@H](C)OC)n4CC)CC(C)(C)COC(=O)[C@@H]3CCCN(N3)C2=O)C(C)C)C1 [Compound A515] | > 8.00
CCn1c(-c2cccnc2[C@H](C)OC)c2c3cc(ccc31)-c1csc(n1)C[C@H](NC(=O)[C@H](C(C)C)N(C)C(=O)N1C3CC1CN(C)C3)C(=O)N1CCC[C@H](N1)C(=O)OCC(C)(C)C2 [Compound A541] | 7.00 to 8.00
CO[C@@H](COC1CN(C(=O)C#CC(C)(C)N(C)C)C1)C(=O)N[C@H]1Cc2cccc(c2)-c2ccc3c(c2)c(c(-c2cccnc2[C@H](C)OC)n3CC(F)(F)F)CC(C)(C)COC(=O)[C@@H]2CCCN(N2)C1=O [Compound A556] | > 8.00
CCn1c(-c2cccnc2[C@H](C)OC)c2c3cc(ccc31)-c1cccc(c1)C[C@H](NC(=O)[C@H](C(C)C)N1CC[C@]3(CCN(C(=O)C#C[C@]4(N(C)C)CCOC4)C3)C1=O)C(=O)N1CCC[C@H](N1)C(=O)OCC(C)(C)C2 [Compound A559] | > 8.00

same assay, conditions: Homo sapiens, NCI-H358, 120 h, read-out: H358 Cell Viability assay data (K-Ras G12C, IC50, uM), 5-day treatment

Structure (SMILES) | IC50 [µM]
CCn1c(-c2cccnc2[C@H](C)OC)c2c3cc(ccc31)-c1csc(n1)C[C@H](NC(=O)[C@H](C(C)C)N(C)C(=O)N1CC3CC(C1)N3C)C(=O)N1CCC[C@H](N1)C(=O)OCC(C)(C)C2 [Compound A284] | 0.1 to 1
